These results are taken from US20250212889A1, “COMPOSITION CONTAINING BACILLUS AMYLOLIQUEFACIENS STRAIN FOR ENHANCING PLANT DISEASE RESISTANCE AND USE THEREOF” (CJ CHEILJEDANG CORPORATION, priority 2022, published 2025).

Common to all, as to type: in vivo
The test system of one series is soybeans. The series can be described thus: Growth promoting ability, shoot weight of soybeans. The method, then: (§1) One week after sowing in pots, root zone treatment of each plant was performed using each 5 ml of BTH, valine, […] powder preparation, and the mixture of […] powder preparation and valine. The root zone treatment with BTH, valine, […] powder preparation, and the mixture of […] powder preparation and valine was performed twice at one week intervals, respectively. One week after the last treatment, a shoot of each treatment group was cut and weighed.

The test system of a further series is cucumbers. The series can be described thus: Growth promoting ability, shoot weight of cucumbers. The method, then:
as §1

Series [1] concerns Phytophthora sojae. The series can be described thus: Mixed treatment pot experiment, soybean Phytophthora stem and root rot. The note with it: soybeans, valine 0.05% in mixed treatment, compared to the untreated group.
The test system of series [2] is Pseudomonas syringae pv. lachrymans. The series can be described thus: Mixed treatment pot experiment, cucumber bacterial leaf blight. The note with it: cucumbers, valine 0.05% in mixed treatment, compared to the untreated group.
Series [3] relates to Phytophthora sojae. The series can be described thus: Mixed treatment glass greenhouse experiment, soybean Phytophthora stem and root rot. The settings on record: soybeans, compared to the untreated group. The method, then: The subject of the experiment was soybeans. Plant preparation, treatment with […] powder preparation and valine, and treatment of soybean Phytophthora stem and root rot were performed in the same manner as Example 7. […] The control value was calculated as follows. [formula]

Series [4] deals with Pseudomonas syringae pv. tomato DC3000. The series can be described thus: Induced resistance, population of pathogens in Arabidopsis thaliana leaves. The settings on record: Arabidopsis thaliana leaf disc, root zone treatment, 3 days after Pst inoculation. The method, then: To this end, Arabidopsis thaliana which is a plant model was used, and Pseudomonas syringae pv. tomato DC3000 (hereinafter, referred to as Pst) causing leaf spot was used as a pathogen. To grow the plant, the surface of seeds of Arabidopsis thaliana was sterilized by immersing the seeds in 3% sodium hypochlorite (NaOCI) for 5 minutes. Thereafter, the seeds were rinsed five times using sterile water and then sown in a pot, and cultured in a plant incubator (12-hour light and 23° C. temperature conditions) for 3 weeks, followed by root zone treatment with each 50 ml of benzothiadiazole (BTH), serenade, N351 strain, valine, and mixture of N351 strain and valine. 7 days after treatment, the pathogen was inoculated and the population of pathogens was examined 0 day and 3 days later. To examine the population of pathogens, the leaves were cut into 1 cm discs using a cork borer and placed in an e-tube containing 1 ml of sterile water and beads. The leaves were ground for 2 minutes at 6000 rpm using a homogenizer (Bertin), and the population of pathogens in the juice was examined.

The subject of series [5] is Pathogenesis-related protein (PR) 1a promoter GUS fusion construct. The series can be described thus: Induced resistance, PR1a promoter GUS expression. The settings on record: Arabidopsis thaliana leaves, 0 to 3 days after disease treatment.
[6] abbreviates: root zone treatment 5 ml twice, one week after last treatment.

On to `CSC(=O)c1cccc2nnsc12` [BTH, benzo (1,2,3)-thiadiazile-7-carbothioic acid S-methyl ester, reference compound], for which the results for the “growth compared to the untreated control group” value with soybeans and in the series with cucumbers were “rather inhibited” and “growth inhibition”, respectively.
Consider `CC(C)[C@H](N)C(=O)O` [valine], for which the results for the control value (with Phytophthora sojae [1]; in series [2]; with Phytophthora sojae [3]) were 36%, 38% and 24%, respectively. This compound registered a population of pathogens in series [4] of 8 LogCFU/disc. Besides, the “GUS activity/expression (PR1a)” value in series [5] was “most strongly induced 1 day after disease treatment, and expression became weaker over time”. Further, the figures for the “shoot weight, average” value in the series with soybeans (setting [6]) and in the series with cucumbers (setting [6]) were 9.3 g and 14 g, respectively. The “growth further promoted compared to the untreated group” value in the series with soybeans (vs untreated group of 8.2 g) was found to be 1.1 g; in the series on cucumbers (vs untreated group of 12.6 g) it was 1.4 g.
